According to a compilation of properties of binary mixtures (doi:10.1016/j.molliq.2012.09.002):

Experiment: xn = mol fraction of the nth substance listed
Conditions: 101 kPa

CN(CCO)CCO + CCCCCC[n+]1ccn(C)c1.F[B-](F)(F)F
x1 = 1
Conditions	viscosity [mPa·s]
318.15 K	27.5
323.15 K	22

CCCCCC[n+]1ccn(C)c1.F[B-](F)(F)F + CN(CCO)CCO
viscosity [mPa·s]
Conditions	x2 = 0	x2 = 0.097	x2 = 0.192	x2 = 0.2909	x2 = 0.3916	x2 = 0.4949	x2 = 0.5936	x2 = 0.6935	x2 = 0.7928	x2 = 0.8824
303.15 K	85	81.7	78.6	75.6	–	–	67.1	64.6	–	60.1
308.15 K	69	65.9	63.1	60.3	57.6	55.1	52.7	50.5	48.3	46.5
313.15 K	55	52.5	50.2	48	45.8	43.7	–	40	38.3	–
318.15 K	43	41.1	39.3	37.6	35.9	–	32.8	31.4	30.1	28.9
323.15 K	36	34.2	32.6	31	29.5	28	26.7	25.5	24.3	23.3
